According to article PMC8800111 (The Journal of Biological Chemistry, 2021):

Key:
Format in all cases: cell-based
[1] = target: proteins of U3A human fibrosarcoma cells (4462 proteins detected) (Homo sapiens, UniProt Q9Y2H0); settings: protein DLGAP4, U3A cells
[2] = target: proteins of U3A human fibrosarcoma cells (4462 proteins detected) (Homo sapiens, UniProt P06756); settings: protein ITGAV; soluble abundance after heat, U3A cells
[3] = target: proteins of U3A human fibrosarcoma cells (4462 proteins detected) (Homo sapiens, UniProt Q6SPF0); settings: protein SAMD1; soluble abundance after heat, U3A cells
Chain of proteins of U3A human fibrosarcoma cells (4462 proteins detected) (Homo sapiens, UniProt Q6SPF0) (Q6SPF0 whole entry): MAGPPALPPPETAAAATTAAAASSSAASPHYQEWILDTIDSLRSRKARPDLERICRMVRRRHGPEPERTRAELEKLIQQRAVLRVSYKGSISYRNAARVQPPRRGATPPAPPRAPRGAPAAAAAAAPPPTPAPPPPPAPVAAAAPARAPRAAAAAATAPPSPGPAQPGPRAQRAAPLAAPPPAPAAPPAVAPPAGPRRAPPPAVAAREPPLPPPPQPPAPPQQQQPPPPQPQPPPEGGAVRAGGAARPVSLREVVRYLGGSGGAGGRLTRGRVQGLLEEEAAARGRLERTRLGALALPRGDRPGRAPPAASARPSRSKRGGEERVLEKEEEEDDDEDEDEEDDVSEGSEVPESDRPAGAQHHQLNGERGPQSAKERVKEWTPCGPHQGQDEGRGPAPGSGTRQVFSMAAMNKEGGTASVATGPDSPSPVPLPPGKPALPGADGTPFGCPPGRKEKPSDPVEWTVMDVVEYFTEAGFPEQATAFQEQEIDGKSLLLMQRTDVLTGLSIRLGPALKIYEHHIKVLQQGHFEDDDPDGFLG

[4] = target: proteins of U3A human fibrosarcoma cells (4462 proteins detected) (Homo sapiens, UniProt P49458); settings: protein SRP9, U3A cells
Chain of proteins of U3A human fibrosarcoma cells (4462 proteins detected) (Homo sapiens, UniProt P49458) (P49458 whole entry): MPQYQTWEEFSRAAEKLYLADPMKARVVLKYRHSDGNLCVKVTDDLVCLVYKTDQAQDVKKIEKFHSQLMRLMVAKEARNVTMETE

[5] = target: proteins of U3A human fibrosarcoma cells (4462 proteins detected) (Homo sapiens, UniProt Q99470); settings: protein SDF2, U3A cells
Chain of proteins of U3A human fibrosarcoma cells (4462 proteins detected) (Homo sapiens, UniProt Q99470) (Q99470 19-211): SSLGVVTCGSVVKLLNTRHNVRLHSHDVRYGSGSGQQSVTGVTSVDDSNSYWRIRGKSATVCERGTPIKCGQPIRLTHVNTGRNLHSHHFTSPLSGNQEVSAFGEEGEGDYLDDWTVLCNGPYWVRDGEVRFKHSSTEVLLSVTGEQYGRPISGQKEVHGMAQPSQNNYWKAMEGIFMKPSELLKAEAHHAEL

[6] = target: proteins of U3A human fibrosarcoma cells (4462 proteins detected) (Homo sapiens, UniProt O00622); settings: protein CYR61; U3A cells
[7] = target: proteins of U3A human fibrosarcoma cells (4462 proteins detected) (Homo sapiens, UniProt P25787); settings: protein PSMA2, U3A cells
[8] = target: proteins of U3A human fibrosarcoma cells (4462 proteins detected) (Homo sapiens, UniProt Q92922); settings: protein SMARCC1; soluble abundance after heat, U3A cells
[9] = target: proteins of U3A human fibrosarcoma cells (4462 proteins detected) (Homo sapiens, UniProt Q13492); settings: protein PICALM; U3A cells
Chain of proteins of U3A human fibrosarcoma cells (4462 proteins detected) (Homo sapiens, UniProt Q13492) (Q13492 whole entry): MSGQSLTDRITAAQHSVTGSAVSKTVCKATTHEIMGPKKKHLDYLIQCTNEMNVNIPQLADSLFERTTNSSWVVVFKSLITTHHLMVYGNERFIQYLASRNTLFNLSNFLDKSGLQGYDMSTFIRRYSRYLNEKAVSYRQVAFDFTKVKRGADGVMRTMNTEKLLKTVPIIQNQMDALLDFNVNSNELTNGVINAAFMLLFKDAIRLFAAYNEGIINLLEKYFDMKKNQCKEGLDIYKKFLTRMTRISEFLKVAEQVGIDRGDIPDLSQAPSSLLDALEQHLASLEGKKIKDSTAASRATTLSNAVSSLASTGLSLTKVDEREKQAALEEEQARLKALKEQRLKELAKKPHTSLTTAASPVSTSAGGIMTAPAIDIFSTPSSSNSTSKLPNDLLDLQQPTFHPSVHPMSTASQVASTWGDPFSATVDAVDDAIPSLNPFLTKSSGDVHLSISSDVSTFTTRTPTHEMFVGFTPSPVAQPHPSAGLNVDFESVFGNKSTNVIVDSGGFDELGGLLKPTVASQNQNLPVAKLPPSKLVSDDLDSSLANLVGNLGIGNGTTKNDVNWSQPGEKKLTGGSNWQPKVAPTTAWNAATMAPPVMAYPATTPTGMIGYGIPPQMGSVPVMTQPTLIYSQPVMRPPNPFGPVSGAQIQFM

[10] = target: proteins of U3A human fibrosarcoma cells (4462 proteins detected) (Homo sapiens, UniProt Q9Y592); settings: protein CEP83; U3A, 10 μM, 2 h
[11] = target: proteins of U3A human fibrosarcoma cells (4462 proteins detected) (Homo sapiens, UniProt Q9UN37); settings: protein VPS4A; U3A cells
[12] = target: proteins of U3A human fibrosarcoma cells (4462 proteins detected) (Homo sapiens, UniProt Q9Y6H1); settings: protein CHCHD2; CHCHD2P9; U3A, 10 μM, 2 h
Chain of proteins of U3A human fibrosarcoma cells (4462 proteins detected) (Homo sapiens, UniProt Q9Y6H1) (Q9Y6H1 whole entry): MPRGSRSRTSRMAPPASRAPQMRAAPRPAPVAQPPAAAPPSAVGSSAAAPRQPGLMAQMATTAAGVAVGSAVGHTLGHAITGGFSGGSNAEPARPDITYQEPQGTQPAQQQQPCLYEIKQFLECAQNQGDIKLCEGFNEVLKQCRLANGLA

[13] = target: proteins of U3A human fibrosarcoma cells (4462 proteins detected) (Homo sapiens, UniProt Q6P1L8); settings: protein MRPL14, U3A cells
[14] = target: proteins of U3A human fibrosarcoma cells (4462 proteins detected) (Homo sapiens, UniProt P49459); settings: protein UBE2A, U3A cells
Chain of proteins of U3A human fibrosarcoma cells (4462 proteins detected) (Homo sapiens, UniProt P49459) (P49459 whole entry): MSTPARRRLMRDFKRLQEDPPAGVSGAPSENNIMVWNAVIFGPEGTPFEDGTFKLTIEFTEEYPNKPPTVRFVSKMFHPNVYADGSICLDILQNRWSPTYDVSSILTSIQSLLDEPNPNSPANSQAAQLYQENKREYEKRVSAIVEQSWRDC

[15] = target: proteins of U3A human fibrosarcoma cells (4462 proteins detected) (Homo sapiens, UniProt Q9UNM6); settings: protein PSMD13; U3A cells
[16] = target: proteins of U3A human fibrosarcoma cells (4462 proteins detected) (Homo sapiens, UniProt P13861); settings: protein PRKAR2A; soluble abundance after heat, U3A cells
Chain of proteins of U3A human fibrosarcoma cells (4462 proteins detected) (Homo sapiens, UniProt P13861) (P13861 whole entry): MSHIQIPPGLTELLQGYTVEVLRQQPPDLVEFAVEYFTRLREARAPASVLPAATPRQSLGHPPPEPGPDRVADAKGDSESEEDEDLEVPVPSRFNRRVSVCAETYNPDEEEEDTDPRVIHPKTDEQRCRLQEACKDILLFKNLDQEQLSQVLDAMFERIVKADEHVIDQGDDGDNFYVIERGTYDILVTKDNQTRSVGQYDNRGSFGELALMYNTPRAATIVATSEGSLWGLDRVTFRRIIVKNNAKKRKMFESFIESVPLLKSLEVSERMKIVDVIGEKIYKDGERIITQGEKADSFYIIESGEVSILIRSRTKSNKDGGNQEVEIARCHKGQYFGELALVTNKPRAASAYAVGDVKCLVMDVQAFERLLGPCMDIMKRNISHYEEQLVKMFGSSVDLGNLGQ

[17] = target: proteins of U3A human fibrosarcoma cells (4462 proteins detected) (Homo sapiens, UniProt Q49AR2); settings: protein C5orf22, U3A cells
[18] = target: proteins of U3A human fibrosarcoma cells (4462 proteins detected) (Homo sapiens, UniProt Q9BZZ5); settings: protein API5; U3A cells
[19] = target: proteins of U3A human fibrosarcoma cells (4462 proteins detected) (Homo sapiens, UniProt Q92575); settings: protein UBXN4; U3A cells
[20] = target: proteins of U3A human fibrosarcoma cells (4462 proteins detected) (Homo sapiens, UniProt O14828); settings: protein SCAMP3; soluble abundance after heat, U3A cells
[21] = target: proteins of U3A human fibrosarcoma cells (4462 proteins detected) (Homo sapiens, UniProt Q13131); settings: protein PRKAA1; U3A cells
[22] = target: proteins of U3A human fibrosarcoma cells (4462 proteins detected) (Homo sapiens, UniProt Q15269); settings: protein PWP2; U3A cells
Chain of proteins of U3A human fibrosarcoma cells (4462 proteins detected) (Homo sapiens, UniProt Q15269) (Q15269 whole entry): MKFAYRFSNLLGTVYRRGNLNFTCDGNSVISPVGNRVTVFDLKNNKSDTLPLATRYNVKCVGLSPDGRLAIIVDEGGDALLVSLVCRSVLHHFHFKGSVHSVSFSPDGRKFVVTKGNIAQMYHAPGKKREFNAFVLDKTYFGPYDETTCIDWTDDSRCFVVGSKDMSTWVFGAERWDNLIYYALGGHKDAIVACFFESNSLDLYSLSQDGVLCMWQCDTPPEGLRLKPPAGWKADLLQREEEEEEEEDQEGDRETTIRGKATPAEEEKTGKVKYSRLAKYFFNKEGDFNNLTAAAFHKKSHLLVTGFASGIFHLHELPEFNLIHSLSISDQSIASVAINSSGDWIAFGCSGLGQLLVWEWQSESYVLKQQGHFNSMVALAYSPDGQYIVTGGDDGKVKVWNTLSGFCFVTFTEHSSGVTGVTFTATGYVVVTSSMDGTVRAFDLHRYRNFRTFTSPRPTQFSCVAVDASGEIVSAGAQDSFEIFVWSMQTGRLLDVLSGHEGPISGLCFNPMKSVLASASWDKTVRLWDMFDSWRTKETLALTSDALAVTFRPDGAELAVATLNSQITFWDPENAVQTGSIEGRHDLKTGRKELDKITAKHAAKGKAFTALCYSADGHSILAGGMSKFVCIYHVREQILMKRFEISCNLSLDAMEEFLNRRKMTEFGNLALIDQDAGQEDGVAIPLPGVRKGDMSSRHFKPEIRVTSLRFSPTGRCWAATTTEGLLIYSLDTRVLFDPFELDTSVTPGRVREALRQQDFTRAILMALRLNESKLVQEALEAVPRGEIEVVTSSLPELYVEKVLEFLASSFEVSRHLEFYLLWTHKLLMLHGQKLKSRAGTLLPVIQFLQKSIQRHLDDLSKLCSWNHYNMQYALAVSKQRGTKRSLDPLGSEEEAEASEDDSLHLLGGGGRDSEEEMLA

[23] = target: proteins of U3A human fibrosarcoma cells (4462 proteins detected) (Homo sapiens, UniProt O75937); settings: protein DNAJC8, U3A cells
[24] = target: proteins of U3A human fibrosarcoma cells (4462 proteins detected) (Homo sapiens, UniProt Q12933); settings: protein TRAF2; U3A cells
Chain of proteins of U3A human fibrosarcoma cells (4462 proteins detected) (Homo sapiens, UniProt Q12933) (Q12933 whole entry): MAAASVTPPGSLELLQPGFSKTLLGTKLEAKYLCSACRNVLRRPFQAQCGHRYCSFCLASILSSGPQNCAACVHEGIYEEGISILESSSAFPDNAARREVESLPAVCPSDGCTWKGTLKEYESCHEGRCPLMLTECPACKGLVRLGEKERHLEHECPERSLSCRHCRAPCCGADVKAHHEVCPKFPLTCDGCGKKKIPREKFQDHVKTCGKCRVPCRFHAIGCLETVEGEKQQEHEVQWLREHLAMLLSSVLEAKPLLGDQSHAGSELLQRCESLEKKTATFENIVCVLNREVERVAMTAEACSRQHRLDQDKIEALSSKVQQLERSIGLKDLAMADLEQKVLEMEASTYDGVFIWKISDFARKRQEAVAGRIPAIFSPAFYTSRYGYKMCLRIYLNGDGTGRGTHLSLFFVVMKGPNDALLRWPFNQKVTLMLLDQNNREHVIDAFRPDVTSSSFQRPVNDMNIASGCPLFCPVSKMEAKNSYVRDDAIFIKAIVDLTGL

[25] = target: proteins of U3A human fibrosarcoma cells (4462 proteins detected) (Homo sapiens, UniProt P48556); settings: protein PSMD8; U3A cells
Chain of proteins of U3A human fibrosarcoma cells (4462 proteins detected) (Homo sapiens, UniProt P48556) (P48556 whole entry): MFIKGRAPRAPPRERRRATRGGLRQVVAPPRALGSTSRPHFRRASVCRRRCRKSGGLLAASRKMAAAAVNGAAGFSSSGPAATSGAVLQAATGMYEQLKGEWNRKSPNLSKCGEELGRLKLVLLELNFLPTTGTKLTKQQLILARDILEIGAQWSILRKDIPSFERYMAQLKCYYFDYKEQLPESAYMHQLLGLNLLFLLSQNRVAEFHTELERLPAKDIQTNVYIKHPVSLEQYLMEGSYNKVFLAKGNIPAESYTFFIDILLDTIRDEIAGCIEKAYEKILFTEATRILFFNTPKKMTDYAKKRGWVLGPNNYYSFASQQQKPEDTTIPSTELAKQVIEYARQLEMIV

[26] = target: proteins of U3A human fibrosarcoma cells (4462 proteins detected) (Homo sapiens, UniProt P23919); settings: protein DTYMK; U3A cells
[27] = target: proteins of U3A human fibrosarcoma cells (4462 proteins detected) (Homo sapiens, UniProt O60462); settings: protein NRP2; soluble abundance after heat, U3A cells
[28] = target: proteins of U3A human fibrosarcoma cells (4462 proteins detected) (Homo sapiens, UniProt P62906); settings: protein RPL10A; U3A cells
[29] = target: proteins of U3A human fibrosarcoma cells (4462 proteins detected) (Homo sapiens, UniProt Q9UQR1); settings: protein ZNF148; U3A, 10 μM, 2 h
[30] = target: proteins of U3A human fibrosarcoma cells (4462 proteins detected) (Homo sapiens, UniProt Q92973); settings: protein TNPO1; U3A cells

Chain of proteins of U3A human fibrosarcoma cells (4462 proteins detected) (Homo sapiens, UniProt P06756) (P06756 31-1048): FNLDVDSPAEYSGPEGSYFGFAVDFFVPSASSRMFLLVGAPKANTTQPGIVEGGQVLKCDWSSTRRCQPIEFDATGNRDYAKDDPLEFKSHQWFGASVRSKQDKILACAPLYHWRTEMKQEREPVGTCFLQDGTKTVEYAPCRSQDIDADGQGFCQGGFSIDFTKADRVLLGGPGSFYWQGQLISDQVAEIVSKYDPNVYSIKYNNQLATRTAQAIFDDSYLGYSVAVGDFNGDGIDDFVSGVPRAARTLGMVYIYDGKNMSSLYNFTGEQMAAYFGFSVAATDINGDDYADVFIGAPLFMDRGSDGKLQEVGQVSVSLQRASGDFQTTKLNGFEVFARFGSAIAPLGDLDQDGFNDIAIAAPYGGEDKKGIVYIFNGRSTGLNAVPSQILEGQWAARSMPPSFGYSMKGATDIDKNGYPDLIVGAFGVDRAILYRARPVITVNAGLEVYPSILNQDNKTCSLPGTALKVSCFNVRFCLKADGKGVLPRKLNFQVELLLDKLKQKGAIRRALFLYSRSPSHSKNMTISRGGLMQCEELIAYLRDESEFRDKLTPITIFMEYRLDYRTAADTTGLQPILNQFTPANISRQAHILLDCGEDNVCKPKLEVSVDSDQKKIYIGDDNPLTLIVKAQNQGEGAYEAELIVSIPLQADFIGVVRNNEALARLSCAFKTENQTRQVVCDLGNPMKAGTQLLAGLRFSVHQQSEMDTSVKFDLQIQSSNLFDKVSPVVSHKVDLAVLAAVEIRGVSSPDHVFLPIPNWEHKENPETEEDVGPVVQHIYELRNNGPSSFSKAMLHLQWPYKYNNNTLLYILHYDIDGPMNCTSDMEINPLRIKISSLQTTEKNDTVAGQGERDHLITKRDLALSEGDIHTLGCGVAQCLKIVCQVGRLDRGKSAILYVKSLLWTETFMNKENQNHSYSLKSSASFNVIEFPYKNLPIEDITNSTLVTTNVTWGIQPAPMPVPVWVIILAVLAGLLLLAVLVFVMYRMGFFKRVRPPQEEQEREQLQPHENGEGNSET

## CCc1nc(N)nc(N)c1-c1ccc(Cl)cc1 [pyrimethamine]
[1]
  Log2 (PYR/DMSO): -0.04
[2]
  Log2 (PYR/DMSO): 0.14
[3]
  Log2 (PYR/DMSO): 0.15
[4]
  Log2 (PYR/DMSO): -0.05
[5]
  Log2 (PYR/DMSO): -0.04
[6]
  Log2 (PYR/DMSO): 0.21
[7]
  Log2 (PYR/DMSO): -0.03
[8]
  Log2 (PYR/DMSO): 0.15
[9]
  Log2 (PYR/DMSO): 0.17
[10]
  Log2 (PYR/DMSO), CEP83: -0.43
[11]
  Log2 (PYR/DMSO): 0.19
[12]
  Log2 (PYR/DMSO), CHCHD2; CHCHD2P9: 0.36
[13]
  Log2 (PYR/DMSO): -0.04
[14]
  Log2 (PYR/DMSO): -0.04
[15]
  Log2 (PYR/DMSO): 0.17
[16]
  Log2 (PYR/DMSO): 0.14
[17]
  Log2 (PYR/DMSO): -0.04
[18]
  Log2 (PYR/DMSO): 0.24
[19]
  Log2 (PYR/DMSO): 0.18
[20]
  Log2 (PYR/DMSO): 0.14
[21]
  Log2 (PYR/DMSO): 0.19
[22]
  Log2 (PYR/DMSO): 0.18
[23]
  Log2 (PYR/DMSO): -0.05
[24]
  Log2 (PYR/DMSO): 0.16
[25]
  Log2 (PYR/DMSO): 0.17
[26]
  Log2 (PYR/DMSO): 0.20
[27]
  Log2 (PYR/DMSO): 0.14
[28]
  Log2 (PYR/DMSO): 0.17
[29]
  Log2 (PYR/DMSO), ZNF148: 0.26
[30]
  Log2 (PYR/DMSO): 0.22
